Source: ChEMBL document CHEMBL1124536, “Heteroaromatic analogues of the alpha 2-adrenoreceptor partial agonist clonidine” (J Med Chem, 1989)
One block for each compound: values may come before it.

How the values were obtained:
[1] = molecular target: T1, Adrenergic receptor alpha-1 (Rattus norvegicus) (UniProt P15823+P23944+P43140); experiment: In vitro antagonistic activity against alpha-1 adrenergic receptor in rat anococcygeus; format: functional
[2] = molecular target: T2, Adrenergic receptor alpha-2 (Rattus norvegicus) (UniProt P22086+P19328+P22909); experiment: In vitro antagonistic activity against alpha-2A adrenergic receptor in rat vas deferens; format: functional, tissue-based
[3] = molecular target: T1, Adrenergic receptor alpha-1 (Rattus norvegicus); experiment: In vitro agonist activity against alpha-1 adrenergic receptor in rat anococcygeus; format: functional
[4] = molecular target: T2, Adrenergic receptor alpha-2 (Rattus norvegicus); experiment: In vitro agonist activity against alpha-2A adrenergic receptor in rat vas deferens; format: functional, tissue-based
[5] = molecular target: T2, Adrenergic receptor alpha-2 (Rattus norvegicus); conditions: Vas deferens
Description: Inhibitory activity against Alpha-2 adrenergic receptor in rat vas deferens

[6] = molecular target: T1, Adrenergic receptor alpha-1 (Rattus norvegicus); experiment: In vitro antagonistic activity against Alpha-1 adrenergic receptor in rat anococcygeus; format: functional
[7] = molecular target: T2, Adrenergic receptor alpha-2 (Rattus norvegicus); experiment: In vitro antagonistic activity against alpha-2A adrenergic receptor in rat vas deferens; Ag means compound was agonist.; format: functional; conditions: filed as agonist
[8] = species on record: Rattus norvegicus; experiment: Antagonist activity against guanoxabenz-induced mydriasis in rat when given […]; format: functional
[9] = molecular target: T2, Adrenergic receptor alpha-2 (Rattus norvegicus); experiment: Antagonistic potency towards alpha-2 adrenergic receptor was determined by observing twich response of rat vas deferens after i.v. administration; format: functional, organism-based
[10] = species on record: Rattus norvegicus; experiment: Maximum percent inhibition electrically evoked contractions of rat vas deferens by the compound was determined as test for its agonistic activity; format: functional
[11] = system: Rattus norvegicus; experiment: Effective dose of the compound required to inhibit electrically evoked contractions of rat vas deferens after i.v. administration; format: functional; conditions: iv
[12] = molecular target: T1, Adrenergic receptor alpha-1 (Rattus norvegicus); experiment: In vitro antagonistic activity against alpha-1 adrenergic receptor in rat anococcygeus; Ag means compound was agonist.; format: functional; conditions: filed as agonist
[13] = molecular target: T1, Adrenergic receptor alpha-1 (Rattus norvegicus); experiment: In vitro agonist activity against alpha-1 adrenoceptor in rat anococcygeus; format: functional
[14] = molecular target: T2, Adrenergic receptor alpha-2 (Rattus norvegicus); experiment: In vitro antagonistic activity against alpha-2 adrenoceptor in rat vas deferens; format: functional, tissue-based
[15] = molecular target: T2, Adrenergic receptor alpha-2 (Rattus norvegicus); experiment: In vitro agonist activity against alpha-2 adrenoceptor in rat vas deferens; format: functional, tissue-based
[16] = molecular target: T1, Adrenergic receptor alpha-1 (Rattus norvegicus); experiment: In vitro antagonistic activity against alpha1 adrenoceptor in rat anococcygeus; Ag means compound was agonist.; format: functional; conditions: filed as agonist
[17] = molecular target: T2, Adrenergic receptor alpha-2 (Rattus norvegicus); experiment: In vitro antagonistic activity against alpha-2 adrenoceptor in rat vas deferens; Ag means compound was agonist.; format: functional; conditions: filed as agonist
[18] = species on record: Rattus norvegicus; experiment: Antagonist potency for alpha 2 adrenoceptor; format: functional, organism-based; conditions: read-out: pA2 (converted)
[19] = molecular target: T2, Adrenergic receptor alpha-2 (Rattus norvegicus); experiment: In vitro agonist activity against Alpha-2 adrenergic receptor in rat vas deferens; format: functional, tissue-based
[20] = molecular target: T2, Adrenergic receptor alpha-2 (Rattus norvegicus); experiment: In vitro antagonistic activity against Alpha-2 adrenergic receptor in rat vas deferens; Ag means compound was agonist.; format: functional; conditions: filed as agonist

Potency [6]: 0.0006
Potency [7]: Agonist
DR2 (ug min-1 kg-1) [9]: 6.8
Potency [4]: 0.02
SMILES: I.O=CN1CCOc2ccc(NC3=NCCN3)cc21
AD50 [8]: 0.297 mg/kg
Inhibition [10]: 62%
ED40 [11]: 0.385 mg/kg

Potency [7]: Agonist
Potency [3]: 0.5
Potency [12]: Agonist
Potency [4]: 0.025
SMILES: CN1CCOc2ccc(NC3=NCCN3)cc21

Potency [7]: Agonist
Potency [1]: 0.0005
Potency [3]: 0
Potency [4]: 0.22
SMILES: CS(=O)(=O)N1CCOc2ccc(NC3=NCCN3)cc21.I
AD50 [8]: >0.3 mg/kg
Inhibition [10]: 70%
ED40 [11]: 0.0273 mg/kg

Potency [13]: 0.006
Potency [14]: 0.0013
Potency [15]: 0
Potency [16]: Agonist
SMILES: O=C1COc2cc(NC3=NCCN3)ccc2N1

Potency [2]: 0.0005
Potency [3]: 0.002
Potency [12]: Agonist
Potency [4]: 0
SMILES: O=C1COc2ccc(NC3=NCCN3)cc2N1

Potency [13]: 0.02
Potency [15]: 0.006
Potency [16]: Agonist
Potency [17]: Agonist
SMILES: O=CN1CCOc2cc(NC3=NCCN3)ccc21

Potency [7]: Agonist
Potency [1]: 0.0006
Potency [3]: 0
Potency [4]: 0.1
SMILES: CC(=O)N1CCOc2ccc(NC3=NCCN3)cc21.I
AD50 [8]: >0.2 mg/kg
Inhibition [10]: 69%
ED40 [11]: 0.0179 mg/kg

Activity [7]: Agonist
DR2 (ug min-1 kg-1) [9]: 4.62
Potency [3]: 0.0002
Activity [12]: Agonist
Potency [4]: 0.03
SMILES: CN1CCOc2cc(NC3=NCCN3)ccc21.I
AD50 [8]: 0.0589 mg/kg
Inhibition [10]: 65%
ED40 [11]: 6.74 mg/kg

Potency [7]: Agonist
Potency [3]: 0.055
Potency [12]: Agonist
Potency [4]: < 0.01
SMILES: CCN1CCOc2cc(NC3=NCCN3)ccc21

Continued, compound first:

SMILES: c1cc2c(cc1NC1=NCCN1)OCO2
Potency [1]: 0.003
Potency [2]: 0.025
Potency [3]: 0
Potency [4]: 0.03

SMILES: Nc1cc(Cl)c(N=C2NCCN2)c(Cl)c1
IC40 [5]: 1.99 nM

SMILES: c1ccc(CN2CCOc3cc(NC4=NCCN4)ccc32)cc1
Potency [7]: Agonist
Potency [1]: 0.001
Potency [3]: 0
Potency [4]: 0.02

SMILES: Brc1c(NC2=NCCN2)ccc2nccnc12 [BRIMONIDINE]
Inhibition [10]: 100%
ED40 [11]: 0.0033 mg/kg

SMILES: c1ccc2c(c1)OCC(C1=NCCN1)O2 (centres undefined) [IDAZOXAN]
AD50 [8]: 0.02936 mg/kg
DR2 (ug min-1 kg-1) [9]: 2
Kb [18]: 10.5 nM

SMILES: CCN1CCc2ccc(NC3=NCCN3)cc21
Potency [2]: 0.04
Potency [3]: 0.17
Potency [12]: Agonist
Potency [4]: 0

SMILES: c1cc2c(cc1NC1=NCCN1)OCCO2
Potency [13]: 0.01
Potency [19]: 1.5
Potency [16]: Agonist
Potency [20]: Agonist

SMILES: Clc1cccc(Cl)c1NC1=NCCN1
Potency [13]: 0.8
Potency [15]: 0.49
Potency [16]: Agonist
Potency [17]: Agonist

SMILES: CC(=O)N1CCc2ccc(NC3=NCCN3)cc21
Potency [7]: Agonist
Potency [1]: 2e-05
Potency [3]: 0
Potency [4]: 0.006
